Laboratory results: US20190077774A1, “PEROXISOME PROLIFERATOR-ACTIVATED RECEPTOR AGONISTS” (City of Hope, priority 2017, published 2019)

Key:
Format in all cases: in vivo
[1] = tested on: PPARα target genes in the liver; test: Liver gene expression of PPARα targets in treated mice (RT-qPCR); settings: for Cyp4A3 expression: chronic treatment (FIG. 13); for ACADM expression: time course (FIG. 18)
Source text: FIG. 6. […] Data in same order as triglyceride suppression (FIG. 5). apo CIII and LPL expression inversely correlate with triglyceride suppression for many, but not all, compounds. ACOX1 and Cyp4A3 expression correlate with triglyceride suppression for many, but not all, compounds.
The following oligonucleotide primers were used to amplify insertion sequences: for PPARα, FW-5′-[…]-3′ (SEQ ID NO:1) and Rev-5′-[…]-3′ (SEQ ID NO:2); for RXRα, FW-5′ […]-3′ (SEQ ID NO:3) and Rev-5′-[…]-3′ (SEQ ID NO:4). It has been well established that PPARα agonists fibrates reduce plasma triglycerides largely by inducing hepatic PPARα-mediated transcription of key proteins in hepatic long-chain fatty acid […], such as CPT1 (carnitine palmitoyltransferase-1). DY121 promoted the expression of PPARα, CPT1, and LPL involved in free fatty acid β-oxidation. The mRNA expressions of the PPARα-regulated genes CPT-Ia and ACADM were measured by real-time quantitative-PCR (RT-qPCR). […] A structural specificity of DY121 may be responsible for this regulation. PPARα is predominantly expressed in liver. PPARα modulates fatty acid catabolism in the liver. We next measured the mRNA expression of PPARα target genes in the liver. PPARα agonists exert their actions and attributed to the activation of PPARα which in turn effects an increase in LPL (lipoprotein lipase) gene expression and transrepression of apoC-III (apolipoprotein C-III). Activation of PPARα by its modulators can increase PPARα levels and activate PPARα pathways, leading to increased fatty-acid oxidation and reduction of oxidative stress. DY121 and its analogs induced the expression of PPARα-regulated genes involved in lipid, glucose, and cholesterol metabolism, such as ACOX1 (acyl-CoA oxidase) and Cyp4A3 (cytochrome P450 gene subfamily). Members of the CYP4A gene subfamily catalyze the oxygenation of biologically important fatty acids.
Next, we would like to investigate the therapeutic potential of DY121 to see if it could be candidate for treating NAFLD/NASH. Note that the pathogenesis of NASH has not yet been fully elucidated so far; however, the ‘two-hit’ theory is widely accepted. The first hit is the accumulation of fatty acids in the liver to cause steatosis. […] The newly produced PPARα agonist DY121 and its analogs, as well as WY100=WY14643 and GW3 (GW7647), were evaluated in C57Bl/6J female mice for their ability to alter serum triglyceride, liver gene expression, and glucose. Fibric acid derivatives (100 mg/kg/day) was used as a control, WY100 (WY14, 643, 100 mg/kg/day), GW3 (GW7647-positive control, 3 mg/kg/day), DY121 (˜3 mg/kg/day), respectively. […]

[2] = Blood glucose in treated mice; settings: after 4 days (FIG. 16)
Source text: FIG. 16. Enhanced PPARα expression and/or activity (particularly in concert with PGC-1α) is expected to increase blood glucose by upregulating gluconeogenic enzymes like PEPCK.
(§1) Next, we would like to investigate the therapeutic potential of DY121 to see if it could be candidate for treating NAFLD/NASH. Note that the pathogenesis of NASH has not yet been fully elucidated so far; however, the ‘two-hit’ theory is widely accepted. The first hit is the accumulation of fatty acids in the liver to cause steatosis. […] The newly produced PPARα agonist DY121 and its analogs, as well as WY100=WY14643 and GW3 (GW7647), were evaluated in C57Bl/6J female mice for their ability to alter serum triglyceride, liver gene expression, and glucose. Fibric acid derivatives (100 mg/kg/day) was used as a control, WY100 (WY14, 643, 100 mg/kg/day), GW3 (GW7647-positive control, 3 mg/kg/day), DY121 (˜3 mg/kg/day), respectively. DY series compounds and controls administered once to C57Bl/6J female mice at 8 weeks of age. Mice were treated at 3 mg/kg for all compounds except WY14643 (100 mg/kg).

[3] = Body weight and food intake of treated mice; settings: time course over 7 days (FIG. 9)
Experimental: as §1

[4] = tested on: C57Bl/6J female mice; test: Serum triglyceride and lipid effects in C57Bl/6J female mice; settings: 7 day period (FIG. 10)

| Compound | liver CPT-Ia expression ([1]; chronic (>3 d) treatment (FIG. 17)) | Cyp4A3 expression ([1]; liver) | ACADM expression [1] | glucose [2] | apoCIII expression ([1]; liver, chronic treatment up to 7 days (FIG. 11)) | weight [3] | triglycerides, chronic treatment [4] |
| --- | --- | --- | --- | --- | --- | --- | --- |
| CC(C)(Sc1ccc(CCN(CCCCC2CCCCC2)C(=O)NC2CCCCC2)cc1)C(=O)O [GW7647, reference compound] | upregulated | consistently | upregulates | increased after 4 days |  |  |  |
| Cc1cccc(Nc2cc(Cl)nc(SCC(=O)O)n2)c1C [WY14643, reference compound] |  | most greatly | upregulates | increased after 4 days | suppressed apoCIII only after 7 days treatment | caused acute weight loss | suppressed triglycerides over the entire 7 day period |
